Assays:
[1] = Hydroxyapatite (HAP) affinity, chromatographic retention on HAP column; format: physicochemical; details: phosphate buffer gradient 1 mM to 1000 mM, pH 6.8, longer retention = higher mineral affinity
[2] = target: T1, human farnesyl pyrophosphate synthase (FPPS) (Homo sapiens, UniProt P14324); experiment: FPPS inhibition; format: biochemical; details: recombinant human FPPS; for IC50: after pre-incubation; for Ki: read-out: FPPS inhibition Ki (final inhibition constant)
T1 construct: made in house
T1 sequence (P14324 67-419 limits assumed): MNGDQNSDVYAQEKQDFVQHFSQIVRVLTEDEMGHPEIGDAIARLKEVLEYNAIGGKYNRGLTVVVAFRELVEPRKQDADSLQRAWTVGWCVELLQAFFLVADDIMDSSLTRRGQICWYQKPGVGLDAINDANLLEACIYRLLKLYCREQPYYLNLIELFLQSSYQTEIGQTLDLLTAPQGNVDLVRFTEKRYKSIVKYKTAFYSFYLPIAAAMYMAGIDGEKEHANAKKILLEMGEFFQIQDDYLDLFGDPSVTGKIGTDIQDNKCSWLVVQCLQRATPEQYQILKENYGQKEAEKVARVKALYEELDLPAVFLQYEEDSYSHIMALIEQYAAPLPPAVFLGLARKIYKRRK

Sprague Dawley rats = experiment: Schenk model, in vivo bone resorption inhibition (tibial BMD); details: rat, subcutaneous once daily for 7 days; dose increasing proximal tibial BMD 20% over control
Procedure: The compounds were evaluated for in vivo bone resorption inhibition and mineralization inhibition in an animal model system known in the field of bone metabolism as the Schenk Model. The general principles of this model system are disclosed in Shinoda et al., Calcif. Tissue Int., 35: 87-99 (1983); and in Schenk et al., Calcif. Tissue Res. 11: 196-214 (1973), the disclosures of which are incorporated herein by reference in their entireties.
Animals: Weanling male Sprague Dawley rats (Charles River Breeding Laboratories, Raleigh, N.C.) approximately 6 weeks old with weights ranging between 120 and 150 grams were placed into groups based on body weight, with 6 animals per group. All groups received treatment by subcutaneous injection (SQ) once daily (QD) for 7 days.
Dose Solutions and Dosing Procedure: On day 0, all animals received an injection of 3% xylenol orange (90 mg/kg; Sigma) in normal saline, pH adjusted to 7.4. On day 4 all animals were given a subcutaneous injection of 1% Calcein (10 mg/kg, Sigma) in 0.9% NaCl solution to label the skeleton. The first treatment was on day 0, and the last treatment on day 6, with animals euthanized on day 7. Concentrations were based on dosing 0.2 ml/100 g body weight. Compounds were administered at doses ranging from 0.0001 to 1 mg P/kg/day for 7 days at semi-log doses. The dose range was based on the IC 50 in the FPPS inhibition assay, and on the affinity to hydroxyapatite (HAP Affinity). Three to seven doses were chosen per test compound. Adjustments in dosage based on changes in body weight were made on a daily basis.
Necropsy, Tissue Processing and Histomorphometry: On day 7 after the start of dosing, all animals were euthanized via exsanguination under gas anesthesia and/or CO2. The right tibia and femur were dissected free and placed in 70% ethyl alcohol. The proximal metaphysis of the right tibia was analyzed using dual energy x-ray analysis (DXA). This provides information on changes in both cortical and cancellous bone density. The primary end-point for this study was bone mineral density in the tibia measured using a Hologics QDR-4500 densitometer (Hologics, Inc). Statistical evaluation of data was made using parametric and non-parametric analysis of variance and Wilcoxon's rank sum test to determine a statistically significant effect compared to control animals.
The Schenk model provided data for in vivo bone resorption inhibition by the compounds, see Table 3. Bone mineral density (BMD) was assessed with a Hologics 4500A on a region of the proximal tibial metaphysic. Efficacy of each bisphosphonate was expressed as the percent change from the vehicle control group. The dose that increased bone mineral density (BMD) 20% greater than control was determined via a logistic dose response relationship (SAS), which estimates an efficacy value using all animals in the study, and identified as D20 for comparison of bisphosphonates across studies. (Lundy et al., J. Bone Min. Res. 22(Suppl 1): S443, (2007)). Data from compounds run in multiple studies was averaged.

[3] = tested on: collagen induced arthritis (CIA) rat; experiment: Collagen induced arthritis (CIA) rat model, bone resorption scores; format: in vivo
Procedure: The collagen induced arthritis (CIA) rat model is an in vivo model that provides for an evaluation of the inhibition of inflammation as well as inhibition of bone erosion. The study was performed according to the method of Bendele et al., Arthritis & Rheumatism, 43: 2648-2659 (2000), incorporated herein by reference in its entirety, with the exception that male animals were used instead of female animals.
Arthritis was induced in rats by injecting collagen on days 0 and 6. The bisphosphonate compound of Example 4 (1-fluoro-2-(imidazo-[1,2-α]pyridin-3-yl)-ethyl-bisphosphonic acid) was administered at four different dosages (1.57 μg/kg, 15.69 μg/kg, 156.9 μg/kg, and 523.0 μg/kg; n=10/group) by subcutaneous injection on day 0, and compared to vehicle control (n=10). An additional group was administered 10 mg/kg Enbrel® (n=10) on days 9, 12, and 15 as a positive control. The study was stopped on day 17 and the animals were evaluated for ankle thickness and paw weight, indices of inflammation. The ankle and knees were removed as one piece, placed in formalin, decalcified and processed for histology. Sections were stained with toluidine blue and graded for inflammation, pannus and cartilage degradation on a score of 0 (normal) to 5 (severe). Bone erosion was also scored in the ankle and knee on a 0-5 score.

SMILES: Cc1ccc2ncc(CC(P(=O)(O)O)P(=O)(O)O)n2c1 [compound 81, 2-(6-methylimidazo-[1,2-α]pyridin-3-yl)-ethyl-bisphosphonic acid]
- HAP Affinity Retention time [1]: 6.6 min
- IC50 [2]: 380 nM
- Ki [2]: 64 nM

SMILES: Cc1ccn2c(CC(F)(P(=O)(O)O)P(=O)(O)O)cnc2c1 [compound 11, 1-fluoro-2-(7-methyl)-imidazo-[1,2-α]pyridin-3-yl-ethyl-bisphosphonic acid]
- HAP Affinity Retention time [1]: 6.2 min
- IC50 [2]: 60.3 nM
- Ki [2]: 9.6 nM
- Schenk D20 (mg P/kg) 20% > BMD than control (Sprague Dawley rats): 0.002 mg P/kg

SMILES: O=P(O)(O)C(Cc1cnc2c(O)cccn12)P(=O)(O)O [compound 40, [2-(8-hydroxy-imidazo[1,2-α]pyridin-3-yl)-1-ethane]-bisphosphonic acid]
- HAP Affinity Retention time [1]: 5.3 min
- IC50 [2]: 893 nM
- Ki [2]: 151 nM

SMILES: Cc1ccn2c(CC(P(=O)(O)O)P(=O)(O)O)cnc2c1 [compound 15, 2-(7-methyl)-imidazo-[1,2-α]pyridin-3-yl-ethyl-bisphosphonic acid]
- HAP Affinity Retention time [1]: 6.6 min
- IC50 [2]: 39.7 nM
- Ki [2]: 6.1 nM
- Schenk D20 (mg P/kg) 20% > BMD than control (Sprague Dawley rats): 0.008 mg P/kg

SMILES: O=P(O)(O)C(F)(Cc1cnc2ccccn12)P(=O)(O)O [compound 23, 1-fluoro-2-(imidazo-[1,2-α]pyridin-3-yl)-ethyl-bisphosphonic acid]
- HAP Affinity Retention time [1]: 6.17 min
- IC50 [2]: 2.46 nM
- Ki [2]: 0.014 nM
- Schenk D20 (mg P/kg) 20% > BMD than control (Sprague Dawley rats): 0.0003 mg P/kg
- ankle bone resorption score, dose response ([3]; single subcutaneous injection day 0, 1.57-523.0 μg/kg, scored day 17 (FIG. 9)): dose-dependent decrease in bone resorption
- knee bone resorption score, dose response ([3]; single subcutaneous injection day 0, 1.57-523.0 μg/kg, scored day 17 (FIG. 10)): dose dependent decrease in bone resorption
- knee bone resorption score, decrease relative to vehicle ([3]; three highest dosage levels (15.69 μg/kg, 156.9 μg/kg and 523.0 μg/kg), p=0.05 (FIG. 10)): statistically different
- ankle bone resorption score, decrease relative to vehicle ([3]; two highest dosage levels (156.9 μg/kg and 523.0 μg/kg), p=0.05 (FIG. 9)): statistically different

SMILES: CCc1nc2ccccn2c1CC(P(=O)(O)O)P(=O)(O)O [compound 75, [(2-ethyl-imidazo[1,2-α]pyridin-3-yl)-methyl]-bisphosphonic acid]
- HAP Affinity Retention time [1]: 4.83 min
- IC50 [2]: 27 nM
- Ki [2]: 2.5 nM

SMILES: O=P(O)(O)C(O)(Cn1ccnc1)P(=O)(O)O [Zoledronate, reference compound]
- HAP Affinity Retention time [1]: 12.53 min
- Schenk D20 (mg P/kg) 20% > BMD than control (Sprague Dawley rats): 0.00008 mg P/kg

SMILES: O=P(O)(O)C(Cc1cnc2ccccn12)P(=O)(O)O [compound 80, 2-(imidazo-[1,2-α]pyridin-3-yl)-ethyl-bisphosphonic acid]
- HAP Affinity Retention time [1]: 6.6 min
- IC50 [2]: 2.59 nM
- Ki [2]: 0.013 nM
- Schenk D20 (mg P/kg) 20% > BMD than control (Sprague Dawley rats): 0.0006 mg P/kg

SMILES: O=P(O)(O)C(Cc1cnc2ccc(F)cn12)P(=O)(O)O [compound 34, [2-(6-fluoro-imidazo[1,2-α]pyridin-3-yl)-ethyl]-bisphosphonic acid]
- HAP Affinity Retention time [1]: 6.3 min
- IC50 [2]: 106 nM
- Ki [2]: 17.5 nM

SMILES: NCCCC(O)(P(=O)(O)O)P(=O)(O)O [Alendronate, reference compound]
- Schenk D20 (mg P/kg) 20% > BMD than control (Sprague Dawley rats): 0.0015 mg P/kg

SMILES: O=P(O)(O)C(O)(Cc1cnc2ccccn12)P(=O)(O)O [Minodronate, reference compound]
- HAP Affinity Retention time [1]: 10.33 min
- Schenk D20 (mg P/kg) 20% > BMD than control (Sprague Dawley rats): 0.0001 mg P/kg

SMILES: O=P(O)(O)C(O)(Cc1cccnc1)P(=O)(O)O [Risedronate, reference compound]
- HAP Affinity Retention time [1]: 9.97 min
- Schenk D20 (mg P/kg) 20% > BMD than control (Sprague Dawley rats): 0.00045 mg P/kg

Source: US8618079B2, “Imidazo[1,2-a] pyridinyl bisphosphonates” (Isis Innovation Limited, priority 2008, dated 2013)
